Measurements taken from patent US7659333B2, “Fluorinated surfactants for use in making a fluoropolymer” (3M Innovative Properties Company, priority 2005, dated 2010).

Test: Determination of bio-accumulation: urinary clearance pharmacokinetic study in rats
Format: in vivo, male Sprague Dawley rats
Procedure: The goal was to measure the total amount of parent compound eliminated via urinary output and estimate the rate of elimination.
The study utilized male Sprague Dawley rats, 6 to 8 weeks of age, and approximately 200 to 250 g body weight at study onset. The test compounds of table 2 were administered at a dose of 73 micro Moles per kg body weight in rats (N=3 animals per tested compound). All test compounds were prepared in sterile deionized water and given to rats via oral gavage. After test compounds administration, the rats were housed individually in metabolism cages for urine collection: 0 to 6 hours, 6 to 24 hours, 24 to 48 hours and 72 to 96 hours. Animals were observed throughout the study for clinical signs of toxicity. Gross necropsy was performed at the termination of each study (96 hours post-dose) with sera and liver samples being retained from each animal.
The concentration of the parent compound or metabolites thereof were quantitatively measured via fluorine NMR on each urine sample for each animal at each time point based on internally added standards.
T ½ and % recovery are based on elimination of the major metabolite—C3F7—O—CHFCOO^−. T1/2 is the renal half-life and is the time required for the amount of a particular substance in a biological system to be reduced to one half of its value by biological processes when the rate of removal is approximately exponential. In these examples the value of T1/2 is calculated by exponential least squares curve fitting (y=Ae^Bx and T1/2=0.693/B) where y represents the concentration of analyte in urine and x represents time in hours.

Compound | % Recovery (96 h) (male Sprague Dawley rats, 73 micro Moles per kg oral gavage, recovery in urine after 96 h, values marked * based on major metabolite C3F7—O—CHFCOO−) | Compound-related Effects (male Sprague Dawley rats, 73 micro Moles per kg oral gavage, clinical signs observed, gross necropsy at 96 hours post-dose) | half-life (rat, in vivo, 73 micro Moles per kg body weight, male Sprague Dawley rats, 73 micro Moles per kg oral gavage, urine 0-96 h by fluorine NMR, exponential least squares fit, values marked * based on elimination of major metabolite C3F7—O—CHFCOO−, read-out: T ½ (h) (renal half-life)) | parent compound in the urine (rat, in vivo, po)
N.O=C(O)C(F)(F)C(F)(F)C(F)(F)C(F)(F)C(F)(F)C(F)(F)C(F)(F)F [APFO, ammonium perfluorooctanoic acid] | 6% | Hepatomegaly | ~550 h | 
C3F7—O—C2HF3—O—CH2—COO^−NH4 [Example 2] |  |  |  | No parent compound observed in the urine
